Biological target: T1, Purine nucleoside phosphorylase (Homo sapiens, UniProt P00491)
T1 sequence (P00491 whole entry): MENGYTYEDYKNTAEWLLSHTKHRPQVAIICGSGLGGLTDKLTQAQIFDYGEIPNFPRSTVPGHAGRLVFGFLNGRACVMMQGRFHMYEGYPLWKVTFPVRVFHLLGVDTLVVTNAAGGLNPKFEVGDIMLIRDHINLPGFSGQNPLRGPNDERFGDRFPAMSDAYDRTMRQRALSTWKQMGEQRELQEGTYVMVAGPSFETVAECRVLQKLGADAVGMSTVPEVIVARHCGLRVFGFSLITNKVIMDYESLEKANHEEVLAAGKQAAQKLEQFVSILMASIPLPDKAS
Description: Inhibition of human PNP by xanthine-oxidase coupled assay

Row | Compound | Ki
1 | O=c1[nH]cnc2c(CN3C[C@H](CO)[C@@H](O)C3)c[nH]c12 [ULODESINE] | 8.5 pM
2 | Nc1nc2c(CN[C@H](CO)[C@H](O)CO)c[nH]c2c(=O)[nH]1 | 3.4 pM
3 | Nc1nc2c(CNC(CO)CO)c[nH]c2c(=O)[nH]1 | 2.1 pM
